Assay results: US20050004126A1 (priority 2001, published 2005)
Where “and” joins values, the source holds several entries; their conditions need not be identical. Identical values can stand only once. Counter-ions that a name gives are not always drawn. Like-named read-outs stand apart in the source and are kept apart here.

Key:
[1] = target: T1, MMP-1FL (full-length interstitial collagenase) (Homo sapiens, UniProt P03956); assay: Thiopeptolide hydrolysis assay, MMP-1; type: biochemical; details: read-out: MMP01 IC50
T1 sequence (P03956 100-469): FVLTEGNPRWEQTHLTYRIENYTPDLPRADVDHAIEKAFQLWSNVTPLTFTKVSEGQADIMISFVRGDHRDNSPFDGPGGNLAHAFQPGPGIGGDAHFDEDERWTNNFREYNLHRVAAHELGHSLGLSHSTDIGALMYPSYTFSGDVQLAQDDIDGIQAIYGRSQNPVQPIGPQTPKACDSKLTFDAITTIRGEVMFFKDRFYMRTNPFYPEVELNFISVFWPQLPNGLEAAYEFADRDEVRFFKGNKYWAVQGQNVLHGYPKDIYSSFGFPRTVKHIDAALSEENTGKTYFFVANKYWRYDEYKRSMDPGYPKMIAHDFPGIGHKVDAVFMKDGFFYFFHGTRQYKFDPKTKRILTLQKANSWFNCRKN
Experimental: (§1) They measure the amount by which a test compound reduces the hydrolysis of a thiopeptolide substrate caused by a matrix metalloproteinase enzyme.
Thiopeptolide substrates show virtually no decomposition or hydrolysis in the absence of a matrix metalloproteinase enzyme. A typical thiopeptolide substrate commonly utilized for assays is Ac-Pro-Leu-Gly-thioester-Leu-Leu-Gly-OEt. A 100 μL assay mixture will contain 50 mM of 2-morpholinoethane sulfonic acid monohydrate (MES, pH 6.0) 10 mM CaCl2, 100 μM thiopeptolide substrate, and 1 mM 5,5′-dithio-bis-(2-nitro-benzoic acid) (DTNB). […] The change in absorbance at 405 nm is monitored on a Thermo Max microplate reader (moleucular Devices, Menlo Park, Calif.) at room temperature (22° C.). […] Assays are carried out with and without matrix metalloproteinase inhibitor compounds, and the amount of hydrolysis is compared for a determination of inhibitory activity of the test compounds.

[2] = target: MMP-13CD (catalytic domain of collagenase 3) (Homo sapiens, UniProt P45452); assay: Thiopeptolide hydrolysis assay, MMP-13;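 further: inhibition of enzymatic thiopeptolide substrate cleavage (100 µM) in pH 6.0 MES buffer with CaCl2 and DTNB, comparing hydrolysis with versus without inhibitor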
[3] = target: MMP-3CD (catalytic domain of stromelysin) (Homo sapiens, UniProt P08254); assay: Thiopeptolide hydrolysis assay, MMP-3; type: biochemical; details: read-out: MMP03 IC50;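 further: inhibition of thiopeptolide substrate (100 µM) cleavage by the MMP-3 catalytic domain, detected with DTNB at pH 6.0 with CaCl2, hydrolysis compared against runs lacking inhibitor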
MMP-3CD (catalytic domain of stromelysin), sequence (P08254 100-272 limits assumed): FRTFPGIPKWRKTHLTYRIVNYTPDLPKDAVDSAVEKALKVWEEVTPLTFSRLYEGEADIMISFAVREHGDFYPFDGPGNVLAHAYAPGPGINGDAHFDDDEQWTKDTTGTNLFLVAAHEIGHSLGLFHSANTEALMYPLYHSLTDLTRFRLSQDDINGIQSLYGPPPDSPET
Experimental: as §1
Thiopeptolide substrates show virtually no decomposition or hydrolysis in the absence of a matrix metalloproteinase enzyme. A typical thiopeptolide substrate commonly utilized for assays is Ac-Pro-Leu-Gly-thioester-Leu-Leu-Gly-OEt. A 100 μL assay mixture will contain 50 mM of 2-morpholinoethane sulfonic acid monohydrate (MES, pH 6.0) 10 mM CaCl2, 100 μM thiopeptolide substrate, and 1 mM 5,5′-dithio-bis-(2-nitro-benzoic acid) (DTNB). […] Assays are carried out with and without matrix metalloproteinase inhibitor compounds, and the amount of hydrolysis is compared for a determination of inhibitory activity of the test compounds.

## Cc1c(=O)n(Cc2ccc(C#N)cc2)c(=O)n2cc(C(=O)NCc3ccc(F)cc3)sc12
[1]; Table 1b
  IC50: > 100 µM
[2]; MMP13 IC50 (μM), Table 1b
  IC50: 0.023 µM
[3]; Table 1b
  IC50: 25 µM

## CCCOc1ccc(C(=O)NCc2ccc3c(c2)OCO3)cc1C(=O)NCc1ccc2c(c1)OCO2
[1]; Table II
  IC50: > 100 µM
[2]; MMP13 IC50 (nM), Table II
  IC50: 1.45 µM
[3]; Table II
  IC50: 27 µM

## O=C(NCc1ccccc1)c1cn2c(=O)n(Cc3ccc(Cl)cc3)c(=O)cc2s1
[1]; Table 1b
  IC50: > 30 µM
[2]; MMP13 IC50 (μM), Table 1b
  IC50: 0.415 µM
[3]; Table 1b
  IC50: 43 µM

## O=C(OCc1ccc2nsnc2c1)c1cccc(C(=O)OCc2ccc3nsnc3c2)c1
[1]; Table II
  IC50: > 100 µM
[3]; Table II
  IC50: > 30 µM

## COC(=O)c1ccc(Cn2c(=O)c(C)c3sc(C(=O)NCc4ccc(F)cc4)cn3c2=O)cc1Cl
[1]; Table 1b
  IC50: > 30 µM
[2]; MMP13 IC50 (μM), Table 1b
  IC50: 0.24 µM
[3]; Table 1b
  IC50: > 30 µM

## Cc1c(=O)n(Cc2cccc(C#N)c2)c(=O)n2cc(C(=O)NCc3ccncc3)sc12 [hydrochloride]
[1]; Table 1b
  IC50: > 30 µM
[2]; MMP13 IC50 (μM), Table 1b
  IC50: 0.173 µM
[3]; Table 1b
  IC50: > 30 µM

## Cc1c(=O)n(Cc2ccccc2)c(=O)n2cc(C(=O)NCc3cccc(F)c3)sc12
[1]; Table 1b
  IC50: > 30 µM
[2]; MMP13 IC50 (μM), Table 1b
  IC50: 0.12 µM
[3]; Table 1b
  IC50: > 30 µM

## COc1ccc(CNC(=O)c2cn3c(=O)n(Cc4ccccc4)c(=O)c(C)c3s2)cn1 [hydrochloride]
[2]; MMP13 IC50 (μM), Table 1b
  IC50: 0.0208 µM
[3]; Table 1b
  IC50: 20.5 µM

## COc1ccc(CNC(=O)c2ccc(OC)c(C(=O)NCc3ccc(OC)cc3)c2)cc1 [4-Methoxy-N,N′-bis-(4-methoxybenzyl)-isophthalamide] [listing 1 of 2 here]
[1]; Table II
  IC50: > 100 µM

## COc1ccc(CNC(=O)c2ccc(OC)c(C(=O)NCc3ccc(OC)cc3)c2)cc1 [4-Methoxy-N,N′-bis-(4-methoxybenzyl)-isophthalamide] [listing 2 of 2 here]
[2]; MMP13 IC50 (nM), Table II
  IC50: 0.25 µM
[3]; Table II
  IC50: 82 µM

## COc1ccc(C(=O)OCc2ccc3nsnc3c2)cc1C(=O)OCc1ccc2nsnc2c1
[1]; Table II
  IC50: 30 µM

## Cc1c(=O)n(Cc2ccccc2)c(=O)n2cc(C(=O)NCc3cccnc3)sc12 [hydrochloride]
[1]; Table 1b
  IC50: > 30 µM
[2]; MMP13 IC50 (μM), Table 1b
  IC50: 0.26 µM

## Cc1c(=O)n(Cc2ccccc2)c(=O)n2cc(C(=O)NCc3ccc4nsnc4c3)sc12
[1]; Table 1b
  IC50: > 30 µM
[2]; MMP13 IC50 (μM), Table 1b
  IC50: 0.0046 µM

## O=C(O)c1ccc(COC(=O)c2cccc(C(=O)NCc3ccc4c(c3)OCO4)c2)cc1
[1]; Table II
  IC50: > 100 µM
[2]; MMP13 IC50 (nM), Table II
  IC50: 0.033 µM

## Cc1c(=O)n(Cc2ccc(C(=O)O)cc2)c(=O)n2cc(C(=O)NCc3ccc(F)cc3)sc12 [Sodium Salt]
[2]; MMP13 IC50 (μM), Table 1b
  IC50: 0.002 µM
[3]; Table 1b
  IC50: 55.5 µM

## O=C(NCc1ccc2c(c1)OCO2)c1cccc(C(=O)NCc2ccc3c(c2)OCO3)c1 [Synthesis Example 11, N,N-Bis-1,3-benzodioxol-5-ylmethyl-isophthalamide]
[2]; MMP13 IC50 (nM), Table II
  IC50: 0.33 µM and 0.683 µM
[3]; Table II
  IC50: 69 µM and 81 µM

## O=C(Nc1cccc(CO)c1)c1cccc(C(=O)Nc2cccc(CO)c2)c1 [N,N′-Bis-(3-hydroxymethyl-phenyl)-isophthalamide]
[1]; Table II
  IC50: > 100 µM
[2]; MMP13 IC50 (nM), Table II
  IC50: 7.8 µM

## O=C(NCc1ccncc1)c1ccc2c(c1)c(=O)n(Cc1ccccc1)c1nccn21 [4-Benzyl-5-oxo-4,5-dihydro-imidazo[1,2-a]quinazoline-7-carboxylic acid (pyridin-4-ylmethyl)-amide]
[2]; IC50 μM, Table V, MMP-13
  IC50: 2.1 µM

## COc1ccc(CNC(=O)c2ccc3c(c2)c(=O)n(CC2CC2)c(=O)n3C)cc1
[2]; MMP13 IC50 μM, Table IVb
  IC50: 0.95 µM

## Cc1c(=O)n(CCOc2ccccc2)c(=O)n2cc(C(=O)NCc3ccc(F)cc3)sc12
[2]; MMP13 IC50 (μM), Table 1b
  IC50: 0.058 µM

## COc1cc(CNC(=O)c2ccc3c(c2)c(=O)n(Cc2cccc(F)c2)c(=O)n3C)ccn1
[2]; MMP13 IC50 μM, Table IVb
  IC50: 0.0058 µM

## Cn1c(=O)n(Cc2ccc(CC(=O)O)cc2)c(=O)c2cc(C(=O)NCc3ccncc3)ccc21
[2]; MMP13 IC50 μM, Table IVb
  IC50: 0.011 µM

## O=C(OCc1ccncc1)c1ccc2c(c1)c(=O)n(Cc1ccccc1)c1nncn21 [Synthesis Example 56, 4-Pyridylmethyl 4-benzyl-5-oxo-4H-[1,2,4]triazolo[4,3-a]quinazol-7-yl-carboxylate]
[2]; IC50 μM, Table V, MMP-13
  IC50: 0.0023 µM

## COc1ccc(CNC(=O)c2ccc(OC)c(C(=O)NCc3ccccc3)c2)cc1
[2]; MMP13 IC50 (nM), Table II
  IC50: 0.43 µM

## Cn1c(=O)n(Cc2ccc(C(=O)O)cc2)c(=O)c2cc(C(=O)NCc3ccc(F)cc3)ccc21
[2]; MMP13 IC50 μM, Table IVb
  IC50: 0.0018 µM

## CNS(=O)(=O)c1ccc(Cn2c(=O)c3cc(C(=O)NCc4ccc(OC)cc4)ccc3n(C)c2=O)cc1
[2]; MMP13 IC50 μM, Table IVb
  IC50: 0.0044 µM

## CNC(=O)c1ccc(Cn2c(=O)c3cc(C(=O)NCc4ccc(OC)cc4)ccc3n(C)c2=O)cc1
[2]; MMP13 IC50 μM, Table IVb
  IC50: 0.0064 µM

## COc1ccc(CNC(=O)c2ccc3c(c2)c(=O)n(Cc2ccc(N)nc2)c(=O)n3C)cc1
[2]; MMP13 IC50 μM, Table IVb
  IC50: 0.053 µM

## COc1ccc(CNC(=O)c2cc3c(=O)n(Cc4ccc(C(=O)O)cc4)c(=O)n(C)c3cn2)cc1
[2]; MMP13 IC50 μM, Table IVb
  IC50: 0.00074 µM

## COc1ccc(CNC(=O)c2ccc3c(c2)c(=O)n(Cc2cccc(F)c2)c(=O)n3C)cc1
[2]; MMP13 IC50 μM, Table IVb
  IC50: 0.0079 µM

## Cn1c(=O)c2cc(C(=O)NCc3ccc4c(c3)OCO4)cnc2n(C)c1=O
[2]; MMP13 IC50 μM, Table IVb
  IC50: 3.85 µM

## COC(=O)Cc1ccc(Cn2c(=O)c3cc(C(=O)NCc4ccc5c(c4)OCO5)ccc3n3cnnc23)cc1 [Methyl (4-{7-[(1,3-benzodioxol-5-ylmethyl)-carbamoyll-5-oxo-5H-[1,2,4]triazolo[4,3-a]quinazolin-4-ylmethyl}-phenyl)-acetate]
[2]; IC50 μM, Table V, MMP-13
  IC50: 0.0022 µM

## CCn1c(=O)n(Cc2ccc(C(=O)O)cc2)c(=O)c2cc(C(=O)NCc3ccc(OC)cc3)ccc21
[2]; MMP13 IC50 μM, Table IVb
  IC50: 0.003 µM

## COC(=O)c1ccc(Cn2c(=O)c3cc(C(=O)NCc4ccc(OC)cc4)ccc3n(C)c2=O)cc1OC
[2]; MMP13 IC50 μM, Table IVb
  IC50: 0.05 µM

## COC(=O)c1ccc(Cn2c(=O)c3cc(C(=O)NCc4cc[n+]([O-])cc4)ccc3n(C)c2=O)cc1
[2]; MMP13 IC50 μM, Table IVb
  IC50: 0.1 µM

## COc1ccc(CNC(=O)c2ccc3c(c2)c(=O)n(Cc2ccc(C#N)cc2)c(=O)n3C)cc1
[2]; MMP13 IC50 μM, Table IVb
  IC50: 0.008 µM

## COc1ccc(CNC(=O)c2ccc3c(c2)c(=O)n(Cc2ccc(C(=O)OCCN(C)C)cc2)c(=O)n3C)cc1
[2]; MMP13 IC50 μM, Table IVb
  IC50: 0.037 µM

## CCOC(=O)Cn1c(=O)c2cc(C(=O)NCc3ccc(OC)cc3)ccc2n(C)c1=O
[2]; MMP13 IC50 μM, Table IVb
  IC50: 0.65 µM

## CC(C)Oc1ccc(C(=O)NCc2ccc3c(c2)OCO3)cc1C(=O)NCc1ccc2c(c1)OCO2
[1]; Table II
  IC50: 71 µM
[2]; MMP13 IC50 (nM), Table II
  IC50: 3.75 µM

## COc1ccc(CNC(=O)c2ccc3c(c2)c(=O)n(Cc2ccc(C(=O)O)cc2)c2nncn32)cc1 [Synthesis Example 60, 4-{7-[(4-Methoxybenzyl)-carbamoyl]-5-oxo-5H-[1,2,4]triazolo[4,3-a]quinazol-4-ylmethyl}benzoic acid]
[2]; IC50 μM, Table V, MMP-13
  IC50: 0.0011 µM

## CC(c1cccc2ccccc12)n1c(=O)c2cc(C(=O)NCc3ccc4c(c3)OCO4)ccc2n(C)c1=O (stereo not drawn)
[2]; MMP13 IC50 μM, Table IVb
  IC50: 9.4 µM

## O=C(NCc1ccc2c(c1)OCO2)c1ccc2c(c1)c(=O)n(Cc1ccccc1)c1nncn21 [Synthesis Example 57, N-(3,4-Methylenedioxybenzyl)-4-benzyl-5-oxo-4H-[1,2,4]triazolo[4,3-a]quinazol-7-ylcarboxamide]
[2]; IC50 μM, Table V, MMP-13
  IC50: 0.004 µM

## CC(=O)Nc1ccc(C(=O)NCc2ccc3c(c2)OCO3)cc1C(=O)NCc1ccc2c(c1)OCO2
[2]; MMP13 IC50 (nM), Table II
  IC50: 5.2 µM

## Cn1c(=O)n(Cc2cccc(F)c2)c(=O)c2cc(C(=O)NCc3cccnc3)ccc21
[2]; MMP13 IC50 μM, Table IVb
  IC50: 0.067 µM

## COC(=O)c1ccc(Cn2c(=O)c3cc(C(=O)NCc4ccc5nonc5c4)ccc3n(C)c2=O)cc1
[2]; MMP13 IC50 μM, Table IVb
  IC50: 0.035 µM

## COc1ccc(CNC(=O)c2ccc3[nH]c(=O)n(Cc4ccc(N(C)C)cc4)c(=O)c3c2)cc1
[2]; MMP13 IC50 μM, Table IVb
  IC50: 0.075 µM

## COc1ccc(CNC(=O)c2ccc3c(c2)c(=O)n(Cc2ccc(-c4ccccc4-c4nnn[nH]4)cc2)c(=O)n3C)cc1
[2]; MMP13 IC50 μM, Table IVb
  IC50: 0.025 µM

## COc1cccc(CNC(=O)c2cccc(C(=O)NCc3cccc([N+](=O)[O-])c3)c2)c1
[2]; MMP13 IC50 (nM), Table II
  IC50: 2.1 µM

## COc1ccc(CNC(=O)c2ccc3c(c2)c(=O)n(CCCC(=O)O)c(=O)n3C)cc1
[2]; MMP13 IC50 μM, Table IVb
  IC50: 1.15 µM

## COc1ccc(CNC(=O)c2ccc3c(c2)c(=O)n(Cc2ccc(F)c(F)c2)c(=O)n3C)cc1
[2]; MMP13 IC50 μM, Table IVb
  IC50: 0.0098 µM

## COc1cccc(CNC(=O)c2cc3c(=O)n(Cc4ccc5cocc5c4)c(=O)n(C)c3s2)c1
[2]; MMP 13 IC50 μM, Table III
  IC50: 0.0505 µM

## COC(=O)c1ccc(Cn2c(=O)c(C)c3sc(C(=O)NCc4ccc(F)cc4)cn3c2=O)cc1OC
[1]; Table 1b
  IC50: > 30 µM
[2]; MMP13 IC50 (μM), Table 1b
  IC50: 0.099 µM

## O=C(OCc1ccccc1)c1cc(C(=O)OCc2ccccc2)cc([N+](=O)[O-])c1 [5-Nitro-isophthalic acid dibenzyl ester]
[2]; MMP13 IC50 (nM), Table II
  IC50: 1.5 µM

## COc1ccc(CNC(=O)c2ccc3c(c2)c(=O)n(Cc2ccc(NC(C)=O)cc2)c(=O)n3C)cc1
[2]; MMP13 IC50 μM, Table IVb
  IC50: 0.009 µM

## COc1ccc(CNC(=O)c2cc3c(=O)n(Cc4ccc(C#N)cc4)c(=O)n(C)c3cn2)cc1
[2]; MMP13 IC50 μM, Table IVb
  IC50: 0.0011 µM
